Data taken from PubChem BioAssay AID2060484 (Molecular Pharmacology Branch, DTP, NCI, 2025).
pIC50: −log10 of the molar value.

Tested on: SUM149PT spheroids with HUVEC/MSC, viability
Test: Anticancer human tumor SUM149PT cell line growth inhibition [GQUAD];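 further: spheroids exposed to drugs for seven days before readout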;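 on viability, T/C: percent viability relative to DMSO vehicle control taken as 100%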
Details: for pIC50: curve of first compound; for viability, T/C: stronger effect = lower value
Method in brief: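 Tumor cells were grown as complex spheroids with HUVEC endothelial cells and mesenchymal stem cells as stroma. G-quadruplex stabilizers were combined with targeted agents over half-log dilutions from near the clinical Cmax, or from 10 microM.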

[1] = second compound 0.0316 µM, first compound 0.0316 µM
[2] = second compound 0.0316 µM, first compound 0.1 µM
[3] = second compound 0.0316 µM, first compound 0.316 µM
[4] = second compound 0.0316 µM, first compound 1 µM
[5] = second compound 0.0316 µM, first compound 3.16 µM
[6] = second compound 0.0316 µM, first compound 10 µM
[7] = second compound 0.1 µM, first compound 0.0316 µM
[8] = second compound 0.1 µM, first compound 0.1 µM
[9] = second compound 0.1 µM, first compound 0.316 µM
[10] = second compound 0.1 µM, first compound 1 µM
[11] = second compound 0.1 µM, first compound 3.16 µM
[12] = second compound 0.1 µM, first compound 10 µM
[13] = second compound 0.316 µM, first compound 0.0316 µM
[14] = second compound 0.316 µM, first compound 0.1 µM
[15] = second compound 0.316 µM, first compound 0.316 µM
[16] = second compound 0.316 µM, first compound 1 µM
[17] = second compound 0.316 µM, first compound 3.16 µM
[18] = second compound 0.316 µM, first compound 10 µM
[19] = second compound 1 µM, first compound 0.0316 µM
[20] = second compound 1 µM, first compound 0.1 µM
[21] = second compound 1 µM, first compound 0.316 µM
[22] = second compound 1 µM, first compound 1 µM
[23] = second compound 1 µM, first compound 3.16 µM
[24] = second compound 1 µM, first compound 10 µM
[25] = second compound 3.16 µM, first compound 0.0316 µM
[26] = second compound 3.16 µM, first compound 0.1 µM
[27] = second compound 3.16 µM, first compound 0.316 µM
[28] = second compound 3.16 µM, first compound 1 µM
[29] = second compound 3.16 µM, first compound 3.16 µM
[30] = second compound 3.16 µM, first compound 10 µM
[31] = second compound 10 µM, first compound 0.0316 µM
[32] = second compound 10 µM, first compound 0.1 µM
[33] = second compound 10 µM, first compound 0.316 µM
[34] = second compound 10 µM, first compound 1 µM
[35] = second compound 10 µM, first compound 3.16 µM
[36] = second compound 10 µM, first compound 10 µM

SMILES: Cc1cccc(N(C)C(=O)C2C(O)CCN2c2nc(C)cc(C(F)(F)F)c2C#N)c1 (stereo not drawn) + Cc1[nH]c2ccc(F)cc2c1-c1nc2c3cccnc3c3ncccc3c2[nH]1
- pIC50 (second compound 0.0316 µM): < 5.00
- pIC50 (second compound 0.1 µM): < 5.00
- pIC50 (second compound 0.316 µM): < 5.00
- pIC50 (second compound 1 µM): < 5.00
- pIC50 (second compound 3.16 µM): < 5.00
- pIC50 (second compound 10 µM): < 5.00
- viability, T/C [1]: 98.2%
- viability, T/C [2]: 92.6%
- viability, T/C [3]: 105%
- viability, T/C [4]: 95.4%
- viability, T/C [5]: 96.5%
- viability, T/C [6]: 92.6%
- viability, T/C [7]: 102%
- viability, T/C [8]: 101%
- viability, T/C [9]: 104%
- viability, T/C [10]: 96.7%
- viability, T/C [11]: 98%
- viability, T/C [12]: 99%
- viability, T/C [13]: 97.8%
- viability, T/C [14]: 94.7%
- viability, T/C [15]: 96%
- viability, T/C [16]: 97.3%
- viability, T/C [17]: 96.1%
- viability, T/C [18]: 95.5%
- viability, T/C [19]: 97.3%
- viability, T/C [20]: 102%
- viability, T/C [21]: 91.1%
- viability, T/C [22]: 98%
- viability, T/C [23]: 91.2%
- viability, T/C [24]: 108%
- viability, T/C [25]: 96.5%
- viability, T/C [26]: 102%
- viability, T/C [27]: 105%
- viability, T/C [28]: 105%
- viability, T/C [29]: 106%
- viability, T/C [30]: 102%
- viability, T/C [31]: 92.5%
- viability, T/C [32]: 93%
- viability, T/C [33]: 105%
- viability, T/C [34]: 84.8%
- viability, T/C [35]: 103%
- viability, T/C [36]: 96.7%

SMILES: Cn1ncnc1[C@H]1c2n[nH]c(=O)c3cc(F)cc(c23)N[C@@H]1c1ccc(F)cc1 + Cc1[nH]c2ccc(F)cc2c1-c1nc2c3cccnc3c3ncccc3c2[nH]1
- pIC50 (second compound 0.0316 µM): < 6.50
- pIC50 (second compound 0.1 µM): < 6.50
- pIC50 (second compound 0.316 µM): 6.52
- pIC50 (second compound 1 µM): < 6.50
- pIC50 (second compound 3.16 µM): < 6.50
- pIC50 (second compound 10 µM): < 6.50
- viability, T/C (second compound 0.0316 µM, first compound 0.000999 µM): 105%
- viability, T/C (second compound 0.0316 µM, first compound 0.00316 µM): 93.4%
- viability, T/C (second compound 0.0316 µM, first compound 0.00999 µM): 103%
- viability, T/C [1]: 88%
- viability, T/C (second compound 0.0316 µM, first compound 0.0999 µM): 69.8%
- viability, T/C [3]: 57.3%
- viability, T/C (second compound 0.1 µM, first compound 0.000999 µM): 90.4%
- viability, T/C (second compound 0.1 µM, first compound 0.00316 µM): 96.2%
- viability, T/C (second compound 0.1 µM, first compound 0.00999 µM): 87.6%
- viability, T/C [7]: 86.9%
- viability, T/C (second compound 0.1 µM, first compound 0.0999 µM): 73.2%
- viability, T/C [9]: 56.7%
- viability, T/C (second compound 0.316 µM, first compound 0.000999 µM): 109%
- viability, T/C (second compound 0.316 µM, first compound 0.00316 µM): 90.3%
- viability, T/C (second compound 0.316 µM, first compound 0.00999 µM): 95.2%
- viability, T/C [13]: 89.8%
- viability, T/C (second compound 0.316 µM, first compound 0.0999 µM): 65.4%
- viability, T/C [15]: 50%
- viability, T/C (second compound 1 µM, first compound 0.000999 µM): 94.6%
- viability, T/C (second compound 1 µM, first compound 0.00316 µM): 94.5%
- viability, T/C (second compound 1 µM, first compound 0.00999 µM): 96.3%
- viability, T/C [19]: 88%
- viability, T/C (second compound 1 µM, first compound 0.0999 µM): 66%
- viability, T/C [21]: 51%
- viability, T/C (second compound 3.16 µM, first compound 0.000999 µM): 88.6%
- viability, T/C (second compound 3.16 µM, first compound 0.00316 µM): 90.4%
- viability, T/C (second compound 3.16 µM, first compound 0.00999 µM): 96.2%
- viability, T/C [25]: 78%
- viability, T/C (second compound 3.16 µM, first compound 0.0999 µM): 67.7%
- viability, T/C [27]: 50%
- viability, T/C (second compound 10 µM, first compound 0.000999 µM): 85.3%
- viability, T/C (second compound 10 µM, first compound 0.00316 µM): 77.7%
- viability, T/C (second compound 10 µM, first compound 0.00999 µM): 88.8%
- viability, T/C [31]: 81.8%
- viability, T/C (second compound 10 µM, first compound 0.0999 µM): 65.4%
- viability, T/C [33]: 50.9%

SMILES: O=C(c1cc(Cc2n[nH]c(=O)c3ccccc23)ccc1F)N1CCN(C(=O)C2CC2)CC1 + Cc1[nH]c2ccc(F)cc2c1-c1nc2c3cccnc3c3ncccc3c2[nH]1
- pIC50 (second compound 0.0316 µM): < 5.00
- pIC50 (second compound 0.1 µM): < 5.00
- pIC50 (second compound 0.316 µM): < 5.00
- pIC50 (second compound 1 µM): < 5.00
- pIC50 (second compound 3.16 µM): < 5.00
- pIC50 (second compound 10 µM): < 5.00
- viability, T/C [1]: 105%
- viability, T/C [2]: 97.4%
- viability, T/C [3]: 98.5%
- viability, T/C [4]: 103%
- viability, T/C [5]: 93.2%
- viability, T/C [6]: 80.3%
- viability, T/C [7]: 102%
- viability, T/C [8]: 96.8%
- viability, T/C [9]: 96.5%
- viability, T/C [10]: 99.8%
- viability, T/C [11]: 108%
- viability, T/C [12]: 76.9%
- viability, T/C [13]: 93.8%
- viability, T/C [14]: 95.1%
- viability, T/C [15]: 103%
- viability, T/C [16]: 111%
- viability, T/C [17]: 96.6%
- viability, T/C [18]: 74.8%
- viability, T/C [19]: 99.9%
- viability, T/C [20]: 97.6%
- viability, T/C [21]: 108%
- viability, T/C [22]: 100%
- viability, T/C [23]: 100%
- viability, T/C [24]: 69.2%
- viability, T/C [25]: 89.9%
- viability, T/C [26]: 96.4%
- viability, T/C [27]: 98.4%
- viability, T/C [28]: 99.6%
- viability, T/C [29]: 95.8%
- viability, T/C [30]: 75.2%
- viability, T/C [31]: 86.8%
- viability, T/C [32]: 86.6%
- viability, T/C [33]: 82.4%
- viability, T/C [34]: 101%
- viability, T/C [35]: 102%
- viability, T/C [36]: 73.5%

SMILES: O=c1[nH]cc(F)c(=O)[nH]1 + Cc1[nH]c2ccc(F)cc2c1-c1nc2c3cccnc3c3ncccc3c2[nH]1
- pIC50 (second compound 0.0316 µM): 5.12
- pIC50 (second compound 0.1 µM): 5.16
- pIC50 (second compound 0.316 µM): < 5.00
- pIC50 (second compound 1 µM): 5.12
- pIC50 (second compound 3.16 µM): 5.28
- pIC50 (second compound 10 µM): 5.45
- viability, T/C [1]: 103%
- viability, T/C [2]: 97.3%
- viability, T/C [3]: 107%
- viability, T/C [4]: 95.6%
- viability, T/C [5]: 57.8%
- viability, T/C [6]: 47.5%
- viability, T/C [7]: 104%
- viability, T/C [8]: 101%
- viability, T/C [9]: 108%
- viability, T/C [10]: 111%
- viability, T/C [11]: 58.3%
- viability, T/C [12]: 46.1%
- viability, T/C [13]: 99.6%
- viability, T/C [14]: 104%
- viability, T/C [15]: 97.7%
- viability, T/C [16]: 102%
- viability, T/C [17]: 61.9%
- viability, T/C [18]: 48.5%
- viability, T/C [19]: 103%
- viability, T/C [20]: 107%
- viability, T/C [21]: 98.4%
- viability, T/C [22]: 110%
- viability, T/C [23]: 63.9%
- viability, T/C [24]: 45.6%
- viability, T/C [25]: 97.5%
- viability, T/C [26]: 98.1%
- viability, T/C [27]: 102%
- viability, T/C [28]: 103%
- viability, T/C [29]: 56.2%
- viability, T/C [30]: 42.1%
- viability, T/C [31]: 79.9%
- viability, T/C [32]: 85.1%
- viability, T/C [33]: 101%
- viability, T/C [34]: 99.5%
- viability, T/C [35]: 51.2%
- viability, T/C [36]: 37.2%
